Results on 1 compound are retold here after paper doi:10.1101/2022.05.23.493001v4 (biorxiv, 2022).

This experiment relates to STING in THP-1 cells (endogenous). Briefly: cells. The settings on record: Homo sapiens, THP-1, 6 h, read-out: EC50 IFN-β THP-1.

SMILES strings stand for the structures.

A word on the EC50: it is the midpoint of the concentration-response curve. `CSc1c(Cl)ccc2c(=O)c3ccc(C(C)(C)C)cc3n(CC(=O)O)c12` [SNX281]: the EC50 was 6.6 µM.
